For 19 compounds, EC50 and IC90 results are on record in patent US20240228488A1 (TAKEDA PHARMACEUTICAL COMPANY LIMITED, priority 2021, published 2024).

In assay [1] the target is human activated kallikrein enzyme (Homo sapiens, UniProt P03952). The assay can be described thus: Plasma kallikrein inhibition, fluorogenic PFR-AMC substrate, 500 pM activated kallikrein format. Format: biochemical. The settings on record: 500 pM activated kallikrein, 300 uM PFR-AMC, 30 min preincubation, 10 min reaction; read-out: Primary Dose Response Assay: Average EC50. The gist of the method: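 Fluorescence (ex 380/em 460 nm) is read after 10 min of 300 uM PFR-AMC turnover by 500 pM enzyme at RT. Compounds sit with enzyme for 30 min beforehand. Buffer is Tris (pH 7.5) with EDTA, NaCl, PEG-400 and Triton X-100; EC50 values are banded.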
Sequence of human activated kallikrein enzyme (P03952 391-638 limits assumed): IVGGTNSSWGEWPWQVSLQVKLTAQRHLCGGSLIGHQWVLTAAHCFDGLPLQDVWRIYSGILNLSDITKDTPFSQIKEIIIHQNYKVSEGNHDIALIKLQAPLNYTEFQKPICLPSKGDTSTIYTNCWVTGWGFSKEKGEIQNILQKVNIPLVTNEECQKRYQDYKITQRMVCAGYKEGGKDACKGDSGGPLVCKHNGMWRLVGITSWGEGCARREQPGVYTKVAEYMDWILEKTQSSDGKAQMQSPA
Sequence of human activated kallikrein enzyme (P03952 20-390 partner limits assumed): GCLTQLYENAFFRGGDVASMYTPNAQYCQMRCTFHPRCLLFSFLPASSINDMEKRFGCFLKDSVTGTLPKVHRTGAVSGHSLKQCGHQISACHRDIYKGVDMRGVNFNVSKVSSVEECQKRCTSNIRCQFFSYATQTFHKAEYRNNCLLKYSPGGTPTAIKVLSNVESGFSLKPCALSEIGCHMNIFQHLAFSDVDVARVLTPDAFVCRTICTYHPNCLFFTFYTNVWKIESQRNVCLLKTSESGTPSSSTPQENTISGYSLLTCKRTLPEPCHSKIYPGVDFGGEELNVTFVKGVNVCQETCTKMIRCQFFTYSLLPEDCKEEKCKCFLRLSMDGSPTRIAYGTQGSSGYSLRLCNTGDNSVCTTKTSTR

In another assay the target is T1, plasma kallikrein (Homo sapiens, UniProt P03952).
T1 construct: from tissue
T1 sequence (P03952 391-638 limits assumed): as the sequence (P03952 391-638 limits assumed) above
T1 sequence (P03952 20-390 partner limits assumed): as the sequence (P03952 20-390 partner limits assumed) above
Briefly: Neat human plasma assay, FXIIa contact pathway-activated, PFR-AMC substrate. It is filed as biochemical. The settings on record: citrated human plasma 78% final, 10 nM human FXIIa, 100 μM PFR-AMC; read-out: Human Plasma Assay: IC90. The gist of the method: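 Compound inhibition of plasma kallikrein measured as PFR-AMC (100 μM) cleavage rate over 5 min at room temperature in 78% citrated human plasma activated with 10 nM FXIIa (Tris pH 7.5 buffer). IC50/IC90 from 4-parameter fit of rate versus inhibitor concentration.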

A value given as a limit tells only on which side of the number the result lay.

As to `O=C(Nc1cc(NCc2cn3cc(C4CC4)ccc3n2)ccn1)[C@@]1(F)C[C@@H]1c1cccc(Cl)c1` (racemic) [Example I-217, rac-(1S*,2S*)-2-(3-chlorophenyl)-N-(4-(((6-cyclopropylimidazo[1,2-a]pyridin-2-yl)methyl)amino)pyridin-2-yl)-1-fluorocyclopropane-1-carboxamide], the EC50 (in general, the midpoint of the concentration-response curve) in assay [1] fell in the range of 1 to 10 nM. Besides, the concentration for an effect of 90% (IC90) – broadly, the concentration needed for an effect of 90% – at plasma kallikrein was 10000 to 48000 nM.
The matching figures for `O=C(Nc1cc(NCc2cn3cc(C4CC4)ccc3n2)ccn1)[C@H]1C[C@@H]1c1cc(Cl)cs1` (racemic) [Example I-219, rac-(1S*,2S*)-2-(4-chlorothiophen-2-yl)-N-(4-(((6-cyclopropylimidazo[1,2-a]pyridin-2-yl)methyl)amino)pyridin-2-yl)cyclopropane-1-carboxamide]: 1 to 10 nM and 10000 to 48000 nM.
For the compound `Nc1ccc(Cl)cc1[C@H]1C[C@@H]1C(=O)Nc1cc(NCc2cn3cc(C4CC4)ccc3n2)ccn1` (racemic) [Example I-222, rac-(1S*,2S*)-2-(2-amino-5-chlorophenyl)-N-(4-(((6-cyclopropylimidazo[1,2-a]pyridin-2-yl)methyl)amino)pyridin-2-yl)cyclopropane-1-carboxamide], in assay [1], the EC50 was in the range of 1 to 10 nM. The IC90 at plasma kallikrein is > 48000 nM.
Take `O=C(Nc1cc(NCc2cn3cc(C4CC4)ccc3n2)ccn1)[C@H]1C[C@@H]1c1cc(Cl)ccc1[N+](=O)[O-]` (racemic) [Example I-223, rac-(1S*,2S*)-2-(5-chloro-2-nitrophenyl)-N-(4-(((6-cyclopropylimidazo[1,2-a]pyridin-2-yl)methyl)amino)pyridin-2-yl)cyclopropane-1-carboxamide]: the EC50 in assay [1] is < 1 nM. At plasma kallikrein, the IC90 is > 48000 nM.
The matching figures for `O=C(Nc1cc(NCc2cn3cc(C4CC4)cc(C4(O)COC4)c3n2)ccn1)[C@H]1C[C@@H]1c1cccc(Cl)c1` (racemic) [Example I-242, rac-(1S*,2S*)-2-(3-chlorophenyl)-N-(4-(((6-cyclopropyl-8-(3-hydroxyoxetan-3-yl)imidazo[1,2-a]pyridin-2-yl)methyl)amino)pyridin-2-yl)cyclopropane-1-carboxamide]: < 1 nM and 1500 to 10000 nM.
In the same order, the values of `COc1cnc(NC(=O)[C@H]2C[C@@H]2c2nccc(C)n2)nc1NCc1cn2cc(C3CC3)cc(N3CC(=O)N(C)C3=O)c2n1` (racemic) [Example I-244, rac-(1S*,2S*)-N-(4-(((6-cyclopropyl-8-(3-methyl-2,4-dioxoimidazolidin-1-yl)imidazo[1,2-a]pyridin-2-yl)methyl)amino)-5-methoxypyrimidin-2-yl)-2-(4-methylpyrimidin-2-yl)cyclopropane-1-carboxamide] are < 1 nM and < 400 nM.
For `Cc1ccnc([C@H]2C[C@@H]2C(=O)Nc2cc(NCc3cn4cc(C5CC5)cc(N5CC(=O)N(C)C5=O)c4n3)ncn2)n1` (racemic) [Example I-259, rac-(1S*,2S*)—N-(6-(((6-cyclopropyl-8-(3-methyl-2,4-dioxoimidazolidin-1-yl)imidazo[1,2-a]pyridin-2-yl)methyl)amino)pyrimidin-4-yl)-2-(4-methylpyrimidin-2-yl)cyclopropane-1-carboxamide], the EC50 in assay [1] was < 1 nM. At plasma kallikrein, the IC90 is < 400 nM.
In the same order, the values of `CN1C(=O)CN(c2cc(C3CC3)cn3cc(CNc4cc(NC(=O)[C@H]5C[C@@H]5c5cc(Cl)ccn5)ncn4)nc23)C1=O` (racemic) [Example I-262, rac-(1S*,2S*)-2-(4-chloropyridin-2-yl)-N-(6-(((6-cyclopropyl-8-(3-methyl-2,4-dioxoimidazolidin-1-yl)imidazo[1,2-a]pyridin-2-yl)methyl)amino)pyrimidin-4-yl)cyclopropane-1-carboxamide] are < 1 nM and 400 to 1500 nM.
In the case of `O=C(Nc1cc(NCc2cn3cc(C4CC4)ccc3n2)ccn1)[C@H]1C[C@@H]1c1cc(Cl)ccn1` (racemic) [Example I-268, rac-(1S*,2S*)-2-(4-chloropyridin-2-yl)-N-(4-(((6-cyclopropylimidazo[1,2-a]pyridin-2-yl)methyl)amino)pyridin-2-yl)cyclopropane-1-carboxamide], the half-maximal effective concentration (EC50) in assay [1] was < 1 nM. On plasma kallikrein, the concentration for an effect of 90% (IC90) was in the range of 10000 to 48000 nM.
In the same order, the values of `O=C(Nc1cc(NCc2cn3cc(C4CC4)cc(N4C[C@@H](O)CC4=O)c3n2)ncn1)[C@H]1C[C@@H]1c1cccc(Cl)c1` (relative stereo) [Example 62, (rac-(1S*,2S*))-2-(3-chlorophenyl)-N-(6-(((6-cyclopropyl-8-((S)-4-hydroxy-2-oxopyrrolidin-1-yl)imidazo[1,2-a]pyridin-2-yl)methyl)amino)pyrimidin-4-yl)cyclopropane-1-carboxamide] are 1 to 10 nM and 1500 to 10000 nM.
The matching figures for `Cc1ccnc([C@H]2C[C@@H]2C(=O)Nc2cc(NCc3cn4cc(C5CC5)cc(N5CC6CC6C5=O)c4n3)ncn2)n1` (relative stereo) [Example 317, rac-(1S*,2S*)—N-(6-(((6-cyclopropyl-8-(2-oxo-3-azabicyclo[3.1.0]hexan-3-yl)imidazo[1,2-a]pyridin-2-yl)methyl)amino)pyrimidin-4-yl)-2-(4-methylpyrimidin-2-yl)cyclopropane-1-carboxamide]: < 1 nM and 1500 to 10000 nM.
Consider `Cc1ccnc([C@H]2C[C@@H]2C(=O)Nc2cc(NC(C)c3cn4cc(C5CC5)cc(N5CC(=O)N(C)C5=O)c4n3)ncn2)n1` (relative stereo) [Example 449, rac-(1S*,2S*)—N-(6-((1-(6-cyclopropyl-8-(3-methyl-2,4-dioxoimidazolidin-1-yl)imidazo[1,2-a]pyridin-2-yl)ethyl)amino)pyrimidin-4-yl)-2-(4-methylpyrimidin-2-yl)cyclopropane-1-carboxamide], for which the EC50 in assay [1] is < 1 nM. The concentration for an effect of 90% (IC90) on plasma kallikrein lay within 1500 to 10000 nM.
In the same order, the values of `Cc1ccnc([C@H]2C[C@@H]2C(=O)Nc2cc(N3C[C@@H](O)C[C@@H]3c3cn4cc([C@H]5C[C@@H]5C)ccc4n3)ncn2)n1` (relative stereo) [Example 470, (1S,2S)-N-(6-((2R,4S)-4-hydroxy-2-(6-((1S*,2S*)-2-methylcyclopropyl)imidazo[1,2-a]pyridin-2-yl)pyrrolidin-1-yl)pyrimidin-4-yl)-2-(4-methylpyrimidin-2-yl)cyclopropane-1-carboxamide] are 1 to 10 nM and 1500 to 10000 nM.
For `Cc1ccnc([C@H]2C[C@@H]2C(=O)Nc2cc(N3C[C@@H](O)C[C@@H]3c3cn4cc(C5CC5)cc(N5CCOC5=O)c4n3)ncn2)n1` (relative stereo) [Example 471, rac-(1S*,2S*)-N-(6-((2R,4S)-2-(6-cyclopropyl-8-(2-oxooxazolidin-3-yl)imidazo[1,2-a]pyridin-2-yl)-4-hydroxypyrrolidin-1-yl)pyrimidin-4-yl)-2-(4-methylpyrimidin-2-yl)cyclopropane-1-carboxamide], in assay [1], the EC50 is < 1 nM. Besides, the IC90 on plasma kallikrein fell in the range of 400 to 1500 nM.
The matching figures for `Cc1ccnc([C@H]2C[C@@H]2C(=O)Nc2cc(N3C[C@@H](O)C[C@@H]3c3cn4cc(C5CC5)ccc4n3)ncn2)c1` (relative stereo) [Example 472, rac-(1S*,2S*)-N-(6-((2R,4S)-2-(6-cyclopropylimidazo[1,2-a]pyridin-2-yl)-4-hydroxypyrrolidin-1-yl)pyrimidin-4-yl)-2-(4-methylpyridin-2-yl)cyclopropane-1-carboxamide]: 1 to 10 nM and 1500 to 10000 nM.
The matching figures for `Cc1ccnc([C@H]2C[C@@H]2C(=O)Nc2cc(N3C[C@@H](O)C[C@@H]3c3cn4cc(C5CC5)cc(N5CC(=O)N(C)C5=O)c4n3)ncn2)n1` (relative stereo) [Example 473, rac-(1S*,2S*)-N-(6-((2R,4S)-2-(6-cyclopropyl-8-(3-methyl-2,4-dioxoimidazolidin-1-yl)imidazo[1,2-a]pyridin-2-yl)-4-hydroxypyrrolidin-1-yl)pyrimidin-4-yl)-2-(4-methylpyrimidin-2-yl)cyclopropane-1-carboxamide]: < 1 nM and 400 to 1500 nM.
In the same order, the values of `Cc1ccnc([C@H]2C[C@@H]2C(=O)Nc2cc(N3C[C@@H](O)C[C@@H]3c3cn4cc(C5CC5)cc(N5CC(=O)NC5=O)c4n3)ncn2)n1` (relative stereo) [Example 474, rac-(1S*,2S*)-N-(6-((2R,4S)-2-(6-cyclopropyl-8-(2,4-dioxoimidazolidin-1-yl)imidazo[1,2-a]pyridin-2-yl)-4-hydroxypyrrolidin-1-yl)pyrimidin-4-yl)-2-(4-methylpyrimidin-2-yl)cyclopropane-1-carboxamide] are < 1 nM and 400 to 1500 nM.
For `Cc1ccnc([C@H]2C[C@@H]2C(=O)Nc2cc(N3C[C@@H](O)C[C@@H]3c3cn4cc(C5CC5)ccc4n3)ncn2)n1` (relative stereo) [Example 476, rac-(1S*,2S*)-N-(6-((2R,4S)-2-(6-cyclopropylimidazo[1,2-a]pyridin-2-yl)-4-hydroxypyrrolidin-1-yl)pyrimidin-4-yl)-2-(4-methylpyrimidin-2-yl)cyclopropane-1-carboxamide], the EC50 in assay [1] is < 1 nM. Moreover, the IC90 at plasma kallikrein was in the range of 1500 to 10000 nM.
The matching figures for `N#Cc1ccc(Cl)cc1[C@H]1C[C@@H]1C(=O)Nc1cc(N2C[C@@H](O)C[C@@H]2c2cn3cc(C4CC4)ccc3n2)ncn1` (relative stereo) [Example 477, rac-(1S*,2S*)-2-(5-chloro-2-cyanophenyl)-N-(6-((2R,4S)-2-(6-cyclopropylimidazo[1,2-a]pyridin-2-yl)-4-hydroxypyrrolidin-1-yl)pyrimidin-4-yl)cyclopropane-1-carboxamide]: 1 to 10 nM and 1500 to 10000 nM.
